Calls of active or inactive are those of the source. Cut-off read from the data, not from the text of the source: actives have a measured IC50 and inactives only a lower limit.

The assay deals with Envelope glycoprotein gp160 (Human immunodeficiency virus 1, UniProt Q6QLK5). The assay is described as follows: inhibitors of HIV fusion peptide binding, primary screen, biochemical, uHTS, fluorescence dequenching (AID 1986).
Sequence of Envelope glycoprotein gp160 (Q6QLK5 whole entry, the tested form may be a part): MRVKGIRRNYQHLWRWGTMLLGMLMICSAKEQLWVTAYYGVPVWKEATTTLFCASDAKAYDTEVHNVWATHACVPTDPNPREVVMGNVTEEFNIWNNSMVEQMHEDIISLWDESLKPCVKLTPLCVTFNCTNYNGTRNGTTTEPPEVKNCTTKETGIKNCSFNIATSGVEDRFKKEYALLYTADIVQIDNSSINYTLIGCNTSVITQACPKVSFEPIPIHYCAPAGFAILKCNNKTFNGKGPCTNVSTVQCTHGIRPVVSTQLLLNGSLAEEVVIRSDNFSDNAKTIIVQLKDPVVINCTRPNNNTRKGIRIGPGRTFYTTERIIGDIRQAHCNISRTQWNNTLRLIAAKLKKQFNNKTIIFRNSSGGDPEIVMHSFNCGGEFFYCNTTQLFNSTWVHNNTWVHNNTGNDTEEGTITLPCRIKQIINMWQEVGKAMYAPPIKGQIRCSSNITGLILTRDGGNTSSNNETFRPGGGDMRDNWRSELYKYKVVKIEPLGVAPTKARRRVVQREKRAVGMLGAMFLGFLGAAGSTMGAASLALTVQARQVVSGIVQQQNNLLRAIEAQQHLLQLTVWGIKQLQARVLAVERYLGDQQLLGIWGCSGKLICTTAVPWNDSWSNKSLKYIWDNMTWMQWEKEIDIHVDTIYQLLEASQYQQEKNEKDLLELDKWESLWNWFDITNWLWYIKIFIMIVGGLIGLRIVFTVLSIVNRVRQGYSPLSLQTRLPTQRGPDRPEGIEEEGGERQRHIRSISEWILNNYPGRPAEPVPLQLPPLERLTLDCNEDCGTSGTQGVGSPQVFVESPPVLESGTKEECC

Turning to `Oc1c(Br)cc(Br)c(/C=N/n2c(S)nnc2-c2ccccc2)c1Br`, the half-maximal inhibitory concentration (IC50) (in general, the concentration that inhibits the measured activity by half) was 12 µM (active).

For the origin of these results see ChEMBL document CHEMBL1201862, “PubChem BioAssay data set” (2004).
